Laboratory results published in paper PMC5997408 (Chemical Research in Toxicology, 2017).
Blank lines part the entries; values can stand above or below the molecule they belong to.

Tests used:
[1] = target: NQO1 (Homo sapiens, UniProt P15559); assay: Inhibition of recombinant NQO1, DCPIP reduction; type: biochemical
[2] = target: T1, NQO2 (Homo sapiens, UniProt P16083); assay: Inhibition of recombinant NQO2, menadione as substrate with BNAH; type: biochemical
T1 sequence (P16083 1-231): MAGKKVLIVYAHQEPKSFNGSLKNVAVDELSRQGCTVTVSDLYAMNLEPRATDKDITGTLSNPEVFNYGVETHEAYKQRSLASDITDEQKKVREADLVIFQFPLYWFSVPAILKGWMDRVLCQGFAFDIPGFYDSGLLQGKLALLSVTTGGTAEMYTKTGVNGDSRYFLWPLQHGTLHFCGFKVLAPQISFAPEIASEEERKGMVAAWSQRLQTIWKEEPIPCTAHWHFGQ

[3] = target: T1, NQO2; settings: 0.25 μM NQO2, tacrine 0, 5, 10, or 20 μM, 50 μM quinone imine
[4] = cited from earlier work
[5] = target: T1, NQO2; assay: Inhibition of recombinant NQO2, DCPIP reduction with BNAH; type: biochemical
[6] = tested on: CYP; settings: up to 25 μM of tacrine, all four microsomal-activated drugs (data not shown)
[7] = target: T1, NQO2; assay: Inhibition of recombinant NQO2, MTT reduction with BNAH; type: biochemical
[8] = target: T1, NQO2; assay: Enzyme kinetics of DCPIP reduction by NQO2; type: biochemical; settings: 50 nM NQO2, 100 µM BNAH

NQO1, sequence (P15559 whole entry): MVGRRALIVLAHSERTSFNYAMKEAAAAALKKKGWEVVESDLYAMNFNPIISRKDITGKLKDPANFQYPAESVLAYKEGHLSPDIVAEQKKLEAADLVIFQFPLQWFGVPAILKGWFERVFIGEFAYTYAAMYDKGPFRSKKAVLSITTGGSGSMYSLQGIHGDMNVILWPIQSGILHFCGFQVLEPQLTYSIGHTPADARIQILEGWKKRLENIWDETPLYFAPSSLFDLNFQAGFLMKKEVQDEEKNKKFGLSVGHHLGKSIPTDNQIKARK

Compound: CC(=O)Nc1ccc(O)cc1 [Acetaminophen, acetaminophen]
- inhibition of NQO1 activity ([1]; up to 1 mM): did not inhibit
- inhibition of NQO2 activity ([2]; up to 1 mM): did not inhibit

Compound: Nc1c2c(nc3ccccc13)CCCC2 [tacrine]
- inhibition of NQO2-mediated reduction of synthetic amodiaquine quinone imine [3]: concentration-dependent inhibition
- plasma concentration of tacrine in humans [4]: around 0.04 μM
- Ki [1]: 193 ± 1 µM
- Ki ([5]; Ki value, range over DCPIP and MTT as substrate): 3 to 15 µM
- Ki ([5]; Ki, recombinant NQO2, substrate DCPIP (25 μM), 100 μM BNAH, mean ± SD (n = 3)): 3 ± 1 µM
- Ki fold lower than found for NQO2 inhibition by resveratrol ([5]; substrate DCPIP): 9 fold
- Ki for NQO2 fold lower compared to the Ki for NQO1 ([5]; substrate DCPIP): 64 fold
- effect on CYP metabolism [6]: no effect
- Ki [7]: 15 ± 1 µM

Compound: O=C1C(Cl)=CC(=Nc2ccc(O)cc2)C=C1Cl [DCPIP, 2,6-dichlorophenolindophenol]
- Km [8]: 25 µM

The remaining lines, values ahead:

- Ki [1]: 40 µM
- Ki [2]: 66 µM
Compound: Cc1cccc(Nc2ccccc2C(=O)O)c1C [mefenamic acid]

- Ki [1]: 13 µM
Compound: O=C(O)Cc1ccccc1Nc1c(Cl)cccc1Cl [diclofenac]
